Consider one compound from article PMC12910498 (ACS pharmacology & translational science, 2026).

Structures are written as SMILES.

Data set [1] can be described thus: Phase I metabolic stability in rat liver microsomes (with NADPH). The conditions noted are these: pH 7.4, presence of NADPH, mean ± SD, n = 3. The class given is in vitro ADME. The essentials:
(§1)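 Liver microsomes were incubated in 100 mM potassium phosphate pH 7.4 with an NADPH-regenerating system (1.3 mM NADPH). Cofactor-free controls gauged non-CYP metabolism. Parent loss was followed in triplicate by LC-MS/MS (orbitrap, positive HESI, full scan), comparing 0, 30 and 60 min samples.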
(Microsomes from liver hold many membrane-bound enzymes, among them those of drug oxidation.)

Data set [2] in a line: Phase I metabolic stability in human liver microsomes (with NADPH). The following applies: pH 7.4, presence of NADPH, mean ± SD, n = 3. The class given is in vitro ADME. In a few lines: as §1
Data set [3] has as its target T1, D1 (Homo sapiens, UniProt P21728).
T1 construct: Psychoactive Drug Screening Program (PDSP)
Put plainly: PDSP primary screen and secondary assay, D1. The class given is binding. From the text: Receptor Primary Secondary Primary Secondary Primary Secondary Primary Secondary screen assay screen assay screen assay screen assay […]
inhibition in primary assessment.

The target of data set [4] is T2, human D4R (Homo sapiens, UniProt P21917).
T2 sequence (P21917 1-419): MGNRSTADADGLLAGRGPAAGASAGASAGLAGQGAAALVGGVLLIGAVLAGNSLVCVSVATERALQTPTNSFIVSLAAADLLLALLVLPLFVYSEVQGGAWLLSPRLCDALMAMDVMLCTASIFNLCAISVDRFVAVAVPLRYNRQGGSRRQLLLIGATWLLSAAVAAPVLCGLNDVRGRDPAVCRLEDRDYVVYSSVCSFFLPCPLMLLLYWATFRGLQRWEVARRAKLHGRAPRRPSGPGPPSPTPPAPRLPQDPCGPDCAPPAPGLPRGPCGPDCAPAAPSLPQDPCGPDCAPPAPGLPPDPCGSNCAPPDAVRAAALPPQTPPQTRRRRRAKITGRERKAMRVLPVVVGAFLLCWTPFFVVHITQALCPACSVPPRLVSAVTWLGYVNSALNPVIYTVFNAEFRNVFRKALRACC
Briefly: DiscoverX PathHunter β-arrestin recruitment assay, D4R. (Activated receptors often draw arrestin, which recruitment assays turn into a signal.)

T1 sequence (P21728 whole entry): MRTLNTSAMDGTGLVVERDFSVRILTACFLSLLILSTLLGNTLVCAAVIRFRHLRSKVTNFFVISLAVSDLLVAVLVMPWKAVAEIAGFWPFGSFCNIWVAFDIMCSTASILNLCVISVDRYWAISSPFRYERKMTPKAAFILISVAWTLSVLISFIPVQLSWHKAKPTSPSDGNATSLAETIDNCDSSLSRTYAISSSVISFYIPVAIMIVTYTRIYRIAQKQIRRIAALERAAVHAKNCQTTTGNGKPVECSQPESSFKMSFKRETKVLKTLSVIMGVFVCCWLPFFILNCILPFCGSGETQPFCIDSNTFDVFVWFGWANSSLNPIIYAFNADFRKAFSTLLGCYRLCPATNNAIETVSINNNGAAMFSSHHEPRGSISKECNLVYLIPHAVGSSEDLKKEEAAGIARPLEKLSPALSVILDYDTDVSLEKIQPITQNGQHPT

As usually defined, the half-life is the time needed for the level to fall by half in the phase considered. What is called Ki is the equilibrium dissociation constant of an inhibitor or competing ligand from its target. Read a low Ki as a stronger hold on the target. In general, inhibition refers to the relative decrease from the control value, in per cent. One may read the EC50 as the concentration giving half of the maximal effect. Read a low EC50 as higher potency in that assay. As a reminder, the IC50 is the midpoint of a concentration-inhibition curve. Low readings indicate higher potency, high ones lower potency. For `Cc1cccc(-n2cc(CN3CCN(c4cccc5ccccc45)CC3)nn2)c1` [Compound 18, 1-(Naphthalen-1-yl)-4-((1-(m-tolyl)-1H-1,2,3-triazol-4-yl)methyl)piperazine], the half-life in data set [1] worked out at 56.8 ± 10.2 min. The half-life in data set [2] turned out to be 61 ± 7.72 min. In addition, in data set [3], the Ki stood at 783 nM. The same compound displayed an inhibition at 10 µM in data set [3] (10 µM compound) of 59.3%. In data set [4], this compound had an EC50 greater than 10 µM and an IC50 of 3.6 ± 1.1 µM. Also, in data set [4] (agonist mode, at 10 μM (Emax ND)), the “D4R average activity at the highest tested dose” value is “ND (8% at 10 μM)”. In addition, in data set [4] (antagonist mode, EC80 dopamine (1 μM), normalized to spiperone), the “D4R Ant. (%)” value was determined as 92.1 ± 12.1%.
